In PubChem BioAssay (NCI):
“And” between values parts separate entries of the source, which are not always exact repeats. Equal entries are not always repeated.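 The compound was tested at five concentrations on cells cultured in 96-well plates, with a 48-hour exposure period. GI50 is the concentration that inhibits growth by half. At the TGI there is no net growth.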

Legend:
Assay in all cases: NCI anticancer screen, dose series, 48 h
[1] = test system: A549 NSCLC
[2] = test system: NCI-H23 lung
[3] = test system: NCI-H460 lung
[4] = test system: NCI/ADR-RES ovarian
[5] = test system: SK-MEL-28 melanoma
[6] = test system: SNB-19 CNS
[7] = test system: SNB-75 CNS
[8] = test system: SW-620 colon
[9] = test system: TK-10 renal
[10] = test system: UO-31 renal

Row | Structure (SMILES) | GI50 [1] | TGI [1] [µM] | GI50 [2] | TGI [2] | GI50 [3] | TGI [3] | GI50 [4] | TGI [4] [µM] | GI50 [5] | TGI [5] | GI50 [6] | TGI [6] [µM] | GI50 [7] [µM] | TGI [7] | GI50 [8] [µM] | TGI [8] [µM] | GI50 [9] [µM] | TGI [9] [µM] | GI50 [10] | TGI [10] [µM]
1 | Cc1nn(Cc2ccccc2)cc1C(=O)Nc1sc2c(c1C(N)=O)CCC(=O)C2 | 4.39 µM | > 100 | 2.52 µM | 7.22 µM | 3.52 µM | 21.2 µM | 3.36 µM | 10.1 | 2.07 µM | 4.29 µM | 3.33 µM | > 100 | 1.74 | 6.81 µM | 0.985 | 5.78 | 3.33 | 26.4 | 1.39 µM | 2.88
2 | CC(C)c1[nH]nc2c(NCc3ccc(-c4ccccn4)cc3)nc(SCCN)nc12 | 0.0306 µM and 0.0159 µM | 12.2 | 0.0212 µM and 0.0181 µM | 0.797 µM and 0.0951 µM | 0.0381 µM and 0.0356 µM | 2.05 µM and 10 µM | 4.87 µM and 3.56 µM | 21.3 | 0.0197 µM and 0.0124 µM | 0.171 µM and 0.239 µM | 0.0173 µM and 0.0142 µM | 11.8 | 0.00587 | 0.0331 µM and 0.0448 µM | 0.012 | – | 0.155 | 10.1 | 0.186 µM and 0.402 µM | –
3 | Cc1cc(-c2nc3n(c2/C=N/N=C(N)N)CCS3)c(C)s1 | 15.7 µM | 44.3 | 15 µM | 28.2 µM | 19.6 µM | 35.7 µM | 74.4 µM | > 100 | 15.1 µM | 29.4 µM | 17.2 µM | 35.3 | 29.9 | 48.8 µM | 18.5 | 35 | 33.6 | > 100 | 17.8 µM | 36.8
4 | C=C1C(=O)O[C@H]2[C@H]1CC/C(COC(=O)CCCCCCCC(=O)OC/C1=C/CC[C@@]3(C)O[C@H]3[C@H]3OC(=O)C(=C)[C@@H]3CC1)=C\CC[C@@]1(C)O[C@@H]21 | 11.1 µM | 28.8 | 2.26 µM | 6.52 µM | 3.06 µM | 9.1 µM | 3.35 µM | > 100 | 2.94 µM | 11.4 µM | 4.85 µM | 19.2 | 12.3 | 35.9 µM | 1.46 | 3.24 | 2.94 | 7.03 | 1.5 µM | 3.79
5 | CC1=CC(C)(C)Nc2ccc(Cc3ccc4c(c3)C(C)=CC(C)(C)N4)cc21 | 12.2 µM | > 100 | 4.54 µM | > 100 µM | 12 µM | 55.1 µM | 18.1 µM | > 100 | 20.3 µM | > 100 µM | 17.2 µM | > 100 | 14.8 | > 100 µM | 11.5 | 25.5 | 16.8 | 92.8 | 7.27 µM | 65.8
6 | C[C@@]1(C(=O)O)CCC[C@]2(C)C1CC[C@]13C[C@@](O)(CO)[C@](O)(CC[C@]12O)C3 (stereo not given in full) | > 100 µM | > 100 | > 100 µM | > 100 µM | > 100 µM | > 100 µM | > 100 µM | > 100 | > 100 µM | > 100 µM | > 100 µM | > 100 | > 100 | > 100 µM | > 100 | > 100 | > 100 | > 100 | > 100 µM | > 100
7 | CN(C)c1cc2c(Nc3ccc4c(cnn4Cc4ccccc4)c3)ncnc2cn1 | 7.49 µM | > 25 | 9.52 µM | > 25 µM | 10.3 µM | > 25 µM | 5.85 µM | > 25 | 20 µM | > 25 µM | 12.7 µM | > 25 | > 22 | > 25 µM | 15.3 | > 25 | 0.741 | > 23.2 | 4.06 µM | > 18.4
8 | Cc1ccc(NC(=S)C#N)c(C)c1 | – | > 100 | – | > 100 µM | – | > 100 µM | – | > 100 | – | > 100 µM | – | > 100 | – | > 100 µM | – | > 100 | – | > 100 | – | > 100
9 | COc1cc(C2c3cc4c(cc3[C@@H](Nc3ccc([N+](=O)[O-])cc3)C3COC(=O)[C@H]23)OCO4)cc(OC)c1O (stereo not given in full) | 0.157 µM and 0.166 µM | 3.72 | 0.341 µM | 4.12 µM | 0.0658 µM | 2.14 µM | – | > 93.6 | – | 34.8 µM | 0.481 µM | 25.8 | 0.333 | 0.836 µM and 7.83 µM | 0.783 | > 91.7 | – | 6.97 | 0.753 µM | 8.76
10 | Cc1c(Cl)cccc1NC(=O)c1sc2nc3c(cc2c1N)C(=O)CCC3 | 0.0619 µM | > 100 | 0.137 µM | > 100 µM | 0.0407 µM | > 100 µM | 0.0463 µM | 12.9 | 0.174 µM | > 100 µM | 0.0698 µM | > 100 | 0.0385 | 20.9 µM | 0.0484 | > 100 | 37.6 | > 100 | 0.0682 µM | > 91.5
11 | COc1cc2c(NC3CCN(C(C)C)CC3)nc(C3CCCCC3)nc2cc1OCCCN1CCCC1 | 3.38 µM | 13.3 | 10.8 µM | 25.5 µM | 3.45 µM | 12.9 µM | 24.9 µM | > 78.8 | 1.72 µM | 3.24 µM | 15.4 µM | 30.3 | 2.09 | 10.8 µM | 2.15 | 6.45 | 2.15 | 5.54 | 14.1 µM | 28.1
12 | O=C(N/N=C/c1cc(Cl)ccc1O)c1ccccc1Nc1ccnc(C(F)(F)F)c1 | 1.26 µM | 23.3 | 1.31 µM | 16.3 µM | 0.323 µM | 10.5 µM | 0.473 µM | 9.03 | 0.389 µM | 15.1 µM | 0.89 µM | 24.3 | 0.703 | 20.8 µM | 0.612 | 12.7 | 0.813 | > 48 | 0.346 µM | 7.73
